In patent US9493484B2, “Heterocyclic compound and use thereof” (Takeda Pharmaceutical Company Limited, priority 2012, dated 2016):

The compounds below were run against T1, GluR1 flip/stargazin (AMPA receptor) in CHO-K1/GluR1 flip/stargazin-expressing cells (Homo sapiens, UniProt P42261) (assay: AMPA receptor function-enhancing activity of compound, using calcium influx as an index). Conditions: test compound final concentration 30 μM with 3 mM glutamic acid, 100% = 3 mM glutamic acid + 300 μM cyclothiazide.
T1 construct: expressed in transfected cells; host or cells: CHO-K1
Format: cell-based
From the text: Human GluR1 flip cDNA was amplified by PCR method using forward primer […] (SEQ ID NO: 1) and reverse primer […] (SEQ ID NO: 2) artificially synthesized using human brain-derived cDNA (BD Bioscience) as a template. The amplified product was digested with restriction enzymes EcoRI, NotI (TAKARA SHUZO CO. LTD.) and incorporated into the same site of pcDNA3.1(+) (Invitrogen) to construct pcDNA3.1(+)/human GluR1 flip gene. Human stargazin cDNA was amplified by PCR method using forward primer […] (SEQ ID NO: 3) and reverse primer […] (SEQ ID NO: 4) artificially synthesized using human hippocampus cDNA as a template. The amplified product was digested with restriction enzymes XhoI, BamHI (TAKARA SHUZO CO. LTD.) and incorporated into the same site of pcDNA3.1(−) (Invitrogen) to construct pcDNA3.1 Zeo(−)/human stargazing gene.
CHO-K1 cells passaged in a culture medium (Ham's F12 medium (Invitrogen) added with 10% inactivated fetal bovine serum (Morgate) and penicillin, streptomycin (Invitrogen)) were detached using 0.05% trypsin and 0.53 mM EDTA (Invitrogen) diluted with D-PBS(−). The detached cells were suspended in a culture medium, and recovered by centrifugation at 1,000 rpm. The recovered cells were re-suspended in D-PBS(−) and added into 0.4 cm electroporation cuvette (BioRad). pcDNA3.1(+)/human GluR1 flip gene (5 μg) and pcDNA3.1 Zeo(−)/human stargazin gene (15 μg) were added, and introduced into CHO-K1 cells under the conditions of […], […] and using Gene Pulser II (BioRad). The introduced cells were cultured overnight in a culture medium. The next day, using a selection medium (culture medium added with zeocin (Invitrogen) at 250 μg/mL), the cells were plated in a 96 well plate at 250 cells/well. The clones showing drug resistance were selected, and GluR1 flip/stargazin expression clones were selected by an assay method shown below using calcium influx as an index.
CHO-K1/GluR1 flip/stargazin-expressing cells were plated on a 96 well black bottom transparent plate (coaster) at 3×10^4 cells/well, and cultured for 2 days in a CO2 incubator (SANYO ELECTRIC Co. Ltd.) at 37° C. The medium of the cell plate was removed, a calcium indicator (Calcium4 Assay Kit, Molecular Device) dissolved in a liquid obtained by adding 1.25 mM probenecid (Invitrogen) to an assay buffer (140 mM NaCl, 5 mM KCl, 10 mM Glucose, 2 mM CaCl2, 1 mM MgCl2, 10 mM HEPES, pH 7.4, 0.1% BSA (SIGMA)) was added at 100 μL/well, and left in a CO2 incubator at 37° C. for 1 hr. A cell plate was set on CellLux (PerkinElmer), a mixture (50 μL) of 9 mM glutamic acid (final concentration 3 mM) diluted with an assay buffer and a test compound (test compound final concentration 30 μM) was added, and variation in the amount of fluorescence was measured for 2 min. The variation of fluorescence level of a well added with final concentration 3 mM glutamic acid and 300 μM cyclothiazide (TOCRIS, prepared from 100 mM dimethyl sulfoxide solution) was defined as 100%, the variation of fluorescence level of a well containing final concentration 3 mM glutamic acid and 0.33% dimethyl sulfoxide was defined as 0%, and the activity of the m compound was calculated by the following formula. activity (%)=(X−C)/(T−C)×100 T: variation of fluorescence level of well added with final concentration 3 mM of glutamic acid and 300 μM cyclothiazide C: variation of fluorescence level of well added with final concentration 3 mM of glutamic acid alone X: variation of fluorescence level of well added with final concentration 3 mM of glutamic acid and 30 μM test compound

T1 sequence (P42261 19-906 isoform P42261-2 limits assumed): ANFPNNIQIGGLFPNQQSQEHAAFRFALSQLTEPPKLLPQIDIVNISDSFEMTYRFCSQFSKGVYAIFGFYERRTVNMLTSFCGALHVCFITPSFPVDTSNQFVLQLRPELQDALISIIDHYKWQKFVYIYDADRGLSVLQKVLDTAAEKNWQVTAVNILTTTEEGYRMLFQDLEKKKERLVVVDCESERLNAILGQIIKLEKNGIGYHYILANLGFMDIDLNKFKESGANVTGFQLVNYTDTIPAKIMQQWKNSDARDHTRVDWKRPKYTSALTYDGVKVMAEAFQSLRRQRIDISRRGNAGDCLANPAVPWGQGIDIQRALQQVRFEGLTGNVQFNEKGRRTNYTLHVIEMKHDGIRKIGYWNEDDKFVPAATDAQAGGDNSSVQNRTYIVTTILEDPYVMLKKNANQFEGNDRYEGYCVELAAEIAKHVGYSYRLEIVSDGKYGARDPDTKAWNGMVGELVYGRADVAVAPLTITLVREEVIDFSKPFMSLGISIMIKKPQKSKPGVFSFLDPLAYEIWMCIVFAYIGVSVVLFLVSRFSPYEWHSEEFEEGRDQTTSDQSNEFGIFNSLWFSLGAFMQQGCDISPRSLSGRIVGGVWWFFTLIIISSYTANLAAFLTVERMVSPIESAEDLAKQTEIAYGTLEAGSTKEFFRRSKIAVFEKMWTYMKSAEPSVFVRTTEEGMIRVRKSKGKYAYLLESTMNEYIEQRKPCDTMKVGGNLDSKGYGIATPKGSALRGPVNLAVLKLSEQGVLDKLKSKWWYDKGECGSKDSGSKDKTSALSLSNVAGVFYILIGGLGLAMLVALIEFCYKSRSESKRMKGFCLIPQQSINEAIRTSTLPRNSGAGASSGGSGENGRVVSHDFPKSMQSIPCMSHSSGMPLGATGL
T1 sequence (Q9Y698 whole entry partner): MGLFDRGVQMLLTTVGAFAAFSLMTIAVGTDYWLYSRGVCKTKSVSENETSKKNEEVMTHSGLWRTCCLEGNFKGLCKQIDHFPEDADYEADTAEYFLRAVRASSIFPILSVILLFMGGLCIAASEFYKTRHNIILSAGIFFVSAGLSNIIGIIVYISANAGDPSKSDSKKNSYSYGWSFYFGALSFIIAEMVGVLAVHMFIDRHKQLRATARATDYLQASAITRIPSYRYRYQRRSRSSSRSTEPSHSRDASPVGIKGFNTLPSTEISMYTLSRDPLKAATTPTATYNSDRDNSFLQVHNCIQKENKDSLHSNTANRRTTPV

Row | Compound | activity (%)
1 | N#Cc1cccc(Oc2ccc(C34CCC(CC3)N3CCS(=O)(=O)N=C34)cc2)c1 [Example 16, 3-(4-(2,2-dioxido-3,4,7,8-tetrahydro-6,9-ethanopyrido[2,1-c][1,2,4]thiadiazin-9(6H)-yl)phenoxy)benzonitrile] | 87%
2 | CC(F)(F)c1cccc(Oc2ccc(C34CCC(CC3)N3CCS(=O)(=O)N=C34)cc2)c1 [Example 2, 9-(4-(3-(1,1-difluoroethyl)phenoxy)phenyl)-3,4,6,7,8,9-hexahydro-6,9-ethanopyrido[2,1-c][1,2,4]thiadiazine 2,2-dioxide] | 74%
3 | O=S1(=O)CCN2C(=N1)C1(c3ccc(Oc4ccc(Cl)cc4)cc3)CCC2CC1 [Example 1, 9-(4-(4-chlorophenoxy)phenyl)-3,4,6,7,8,9-hexahydro-6,9-ethanopyrido[2,1-c][1,2,4]thiadiazine 2,2-dioxide] | 26%
4 | Cc1ccc(Oc2ccc(C34CCC(CC3)N3CCS(=O)(=O)N=C34)cc2)cc1C#N [Example 47, 5-(4-(2,2-dioxido-3,4,7,8-tetrahydro-6,9-ethanopyrido[2,1-c][1,2,4]thiadiazin-9(6H)-yl)phenoxy)-2-methylbenzonitrile] | 87%
5 | CC(C)COc1ccc(C23CCC(CC2)N2CCS(=O)(=O)N=C23)cc1 [Example 28, 9-(4-isobutoxyphenyl)-3,4,6,7,8,9-hexahydro-6,9-ethanopyrido[2,1-c][1,2,4]thiadiazine 2,2-dioxide] | 91%
6 | O=S1(=O)CCN2CCCN(c3ccc(Oc4ccc(Cl)cc4)cc3)C2=N1 [Example 45, 9-(4-(4-chlorophenoxy)phenyl)-3,4,6,7,8,9-hexahydropyrimido[2,1-c][1,2,4]thiadiazine 2,2-dioxide] | 77%
7 | O=S1(=O)CCN2C(=N1)C1(c3ccc(OCc4cccc(Cl)c4)cc3)CCC2CC1 [Example 30, 9-(4-((3-chlorobenzyl)oxy)phenyl)-3,4,6,7,8,9-hexahydro-6,9-ethanopyrido[2,1-c][1,2,4]thiadiazine 2,2-dioxide] | 22%
8 | O=S1(=O)CCN2C(=N1)C1(c3ccc(Oc4cc(C(F)(F)F)ccn4)cc3)CCC2CC1 [Example 15, 9-(4-((4-(trifluoromethyl)pyridin-2-yl)oxy)phenyl)-3,4,6,7,8,9-hexahydro-6,9-ethanopyrido[2,1-c][1,2,4]thiadiazine 2,2-dioxide] | 92%
9 | O=S1(=O)CCN2C(=N1)C1(c3ccc(Oc4ncccn4)cc3)CCC2CC1 [Example 23, 9-(4-(pyrimidin-2-yloxy)phenyl)-3,4,6,7,8,9-hexahydro-6,9-ethanopyrido[2,1-c][1,2,4]thiadiazine 2,2-dioxide] | 61%
10 | O=S1(=O)CCN2C(=N1)C1(c3ccc(OCC4CCCO4)cc3)CCC2CC1 (stereo not shown) [Example 38, 9-(4-(tetahydrofuran-2-ylmethoxy)phenyl)-3,4,6,7,8,9-hexahydro-6,9-ethanopyrido[2,1-c][1,2,4]thiadiazine 2,2-dioxide] | 87%
